Data published in PMC7018972, “Novel and selective inactivators of Triosephosphate isomerase with anti-trematode activity” (Scientific Reports, 2020).
Where two headings read alike, the source gives them in different places.

Assays:
[1] = biological target: Fasciola hepatica TIM (FhTIM) (Fasciola hepatica, UniProt S4UI50); test: Inhibition of recombinant FhTIM, coupled enzyme assay; format: biochemical
Method in brief: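 E. coli-expressed FhTIM preincubated with compound 1 h at 37 °C in 100 mM triethanolamine, 10 mM EDTA, pH 7.4, 10% DMSO. Aliquot diluted into coupled assay (1 mM glyceraldehyde-3-phosphate, 0.2 mM NADH, α-glycerol phosphate dehydrogenase, pH 7.4) with NADH decrease at 340 nm, 38 °C. Triplicate, two independent experiments.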

[2] = test system: newly excysted juvenile (NEJ) F. hepatica; test: In vitro NEJ treatment; format: cell-based, Fasciola hepatica; settings: Fasciola hepatica, NEJ
Description: F. hepatica metacercariae were acquired from DILAVE, MGAP, Uruguay. NEJ were obtained by in vitro excystement as previously described with minor modifications. Briefly, metacercariae were incubated with 1% sodium hypochlorite for 5 min at room temperature to remove the outer cyst wall and then washed exhaustively with PBS 200 U/mL Penicillin G sulfate, […] streptomycin sulfate, 500 ng/mL amphotericin B, 10 mM HEPES, counted and divided into groups of around 20 parasites that were transferred to 12 wells tissue culture plates. Parasites were maintained at 37 °C, 5% CO2 in modified Basch’s medium. At day 1, compounds were added at the indicated concentrations and 0.5% DMSO was added to control groups; each condition was tested in duplicate. NEJ behavior was monitored under a light microscope (Olympus BX41), every day each well was recorded for a minute in order to assess parasite motility and registered using the following score: 3- normally active; 2- reduced activity (sporadic movement); 1- immotile (dead)[48].

S. mansoni adults = S. mansoni adults phenotypic screen ex vivo; format: cell-based, Schistosoma mansoni; settings: Table 2S, 5 uM
From the text: (§1) The NMRI isolate of S. mansoni was maintained by passage through Biomphalaria glabrata snails and 3–5 week-old, female Golden Syrian hamsters (Charles River, San Diego, CA) as intermediate and definite hosts, respectively. A dose of 600 infective larvae (cercariae) was used to infect hamsters. The acquisition, preparation and in vitro maintenance of S. mansoni post-infective larvae (schistosomula or somules) and adults have been already described[5],[50],[51]. Vertebrate animal maintenance and handling at the University of California San Diego Animal Care Facility were in accordance with protocols approved by the university’s Institutional Animal Care and Use Committee (IACUC).
Phenotypic screens with 42-day-old, adult parasites were performed in 24-well plates (Costar cat.# 3526) containing the above medium and approximately five adult males and two females per well. Compound was added in a volume of up to 1 μL DMSO at a concentration of 5 µM (0.05% DMSO final). Assay plates were incubated at 37 °C in a 5% CO2 environment. Parasite phenotypes were recorded at 4, 8 and 24 h using a Zeiss Axiovert 40 C.
(§2) Schistosome phenotypic responses were recorded employing a series of ‘descriptors,’ such as rounding, degeneration, overactivity, loss of translucency and changes in motility, as described previously[5],[50],[51],[53]. To allow for comparisons of compound activity, each descriptor was awarded a value of 1 and these were added up to a maximum ‘severity score’ of 4. Evidence of degeneracy or death was awarded the maximum score of 4. Scores were averaged across duplicate wells for each compound (see details in the supporting information).

S. mansoni somules = S. mansoni somules phenotypic screen in vitro; format: cell-based, Schistosoma mansoni; settings: for SOMULES SEVERITY SCORE: Table 2S, 10 uM
From the text: as §1
Phenotypic screens with somules were performed as described[5],[50],[51]. Initially, 100 μL Basch medium, 100 U/ml penicillin, […] streptomycin, 4% heat-inactivated FBS (Corning Mediatech) and 1 μl compound in DMSO were added to clear, 96-well round-bottomed plates (Costar cat.# 3367). Then, 100 μL of the same medium containing 40–50 somules was added to mix the compound with somules (final concentration of DMSO was 0.5%). Assay plates were placed into plastic boxes humidified with wet tissue and then incubated at 37 °C in a 5% CO2 environment. Somules phenotypes were recorded every 24 h up to 72 h using an inverted microscope (Zeiss Axiovert 40 C).
as §2

FhTIM = FhTIM (Fasciola hepatica, UniProt S4UI50); test: Microscale thermophoresis (MST) binding to FhTIM; settings: 24 °C
Description: MST experiments were performed according to the NanoTemper technologies protocol in a Monolith NT.115 (red/blue) instrument (NanoTemper Technologies, München, Germany[36]). With this technique, the diffusion behavior of a labeled protein is measured when an infrared light excites the movement of the protein in capillaries. This behavior is the combination of two effects: the fast, local environment-dependent responses of the fluorophore to the temperature jump and the slower diffusive thermophoresis fluorescence changes. It will be modified when the protein is complexed with increasing amounts of unlabeled partners, leading to titration curves that can be fit for Kd estimation. In practice, FhTIM was labeled with the Monolith His-Tag Labeling Kit RED-tris-NTA (NanoTemper Technologies, München, Germany), as described by the manufacturer. The experiments were performed using 20% and 40% MST power and between 20–80% LED power at 24 °C. The MST traces were recorded using the standard parameters: 5 s MST power off, 30 s MST power on, and 5 s MST power off. The compounds were used at high concentrations (around 5 mM) in the bindings check assay with DMSO at 5% v/v. If the binding check was positive, then the affinity determination was performed with the same experimental settings, with serial 2x dilutions of the compound of interest.

[3] = Table 1S, screening of 340 compounds in FhTIM, table head prints no unit, µM per b8/b9, read-out: IC50
[4] = recombinant FhTIM, 1 h incubation with compound at 37 °C, read-out: IC50
[5] = Figure 1, ranges of inhibitory activity, read-out: IC50 range

Chain of Fasciola hepatica TIM (FhTIM) (S4UI50 entry or part of it): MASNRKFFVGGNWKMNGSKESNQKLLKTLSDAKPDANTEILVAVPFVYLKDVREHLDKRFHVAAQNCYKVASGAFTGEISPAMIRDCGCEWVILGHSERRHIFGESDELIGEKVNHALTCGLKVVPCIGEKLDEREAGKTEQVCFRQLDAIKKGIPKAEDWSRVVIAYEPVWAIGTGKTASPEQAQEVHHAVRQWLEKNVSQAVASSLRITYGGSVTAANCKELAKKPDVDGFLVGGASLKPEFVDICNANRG
Chain of FhTIM (S4UI50 entry or part of it): as above

Row | IC50 [1, 3] | Structure (SMILES) | also measured
1 | – | COc1cc(/C=C/C(=O)CC(=O)/C=C/c2ccc(O)c(OC)c2)ccc1O [Compound 906] | IC50 ([1]; IC50 (µM), recombinant FhTIM, 1 h incubation with compound at 37 °C): 35 ± 4 µM; IC50 ([1]; IC50 range, Figure 1, ranges of inhibitory activity): < 50 µM; IC50 ([2]; incubation time 4 h): 7 ± 1 µM
2 | – | O=C(C=Cc1ccc2ccccc2c1)c1c(O)ccc2ccccc12 [Compound 1254] | IC50 [1, 4]: 50 ± 5 µM; SOMULES SEVERITY SCORE (S. mansoni somules; 24 h): 0; SOMULES SEVERITY SCORE (S. mansoni somules; 48 h): 2; SOMULES SEVERITY SCORE (S. mansoni somules; 3d): 0
3 | – | CS(=O)(=O)c1nc2cc(Oc3cccc(Cl)c3Cl)c(Cl)cc2[nH]1 [Compound 1293, 6-chloro-5-(2,3-dichlorophenoxy)-2-(methylsulfonyl)-1H-benzo[d]imidazole, reference compound] | IC50 ([2]; incubation time 48 h): 50 µM
4 | – | CCCCN1C(=O)C(=Cc2ccc([N+](=O)[O-])s2)C(=O)N(CCCC)S1(=O)=O [Compound 1148] | IC50 [1, 5]: < 50 µM; IC50 [1, 4]: 15 ± 5 µM; IC50 ([2]; incubation time 4 h): 12 ± 2 µM; SOMULES SEVERITY SCORE (S. mansoni somules; 24 h): 0; SOMULES SEVERITY SCORE (S. mansoni somules; 48 h): 1; SOMULES SEVERITY SCORE (S. mansoni somules; 3d): 0
5 | – | O=C1C(=Cc2ccc([N+](=O)[O-])s2)C(=O)N(Cc2ccccc2)S(=O)(=O)N1Cc1ccccc1 [Compound 114] | IC50 [1, 5]: < 50 µM; IC50 [1, 4]: 25 ± 8 µM; Kd (FhTIM): 664 ± 25 µM; IC50 ([2]; incubation time 4 h): 6.5 ± 0.6 µM; S. mansoni somules severity score (S. mansoni somules; Table 2, 72 h, score 0 to maximum 4): 4 (72 h); SOMULES SEVERITY SCORE (S. mansoni somules; 24 h): 0; SOMULES SEVERITY SCORE (S. mansoni somules; 48 h): 3; SOMULES SEVERITY SCORE (S. mansoni somules; 3d): 4
6 | > 100 µM | O=Cc1ccc2no[n+]([O-])c2c1 [Compound 38] | –
7 | – | CN(C)Cc1ccccc1Cn1nc(O)c2cc([N+](=O)[O-])ccc21 [Compound 482] | IC50 [1, 5]: < 50 µM; IC50 [1, 4]: 30 ± 3 µM
8 | > 100 µM | C=CCn1c(-c2ccccc2)csc1=NN=Cc1ccc([N+](=O)[O-])s1 [Compound 147] | –
9 | > 100 µM | O=C1CSC(=NN=Cc2ccc([N+](=O)[O-])s2)N1 [Compound 258] | –
10 | – | CN(C)CCCNS(=O)(=O)NCCCN(C)C [Compound 121] | IC50 [1, 4]: 50 ± 9 µM
11 | < 25 µM | O=C1C(=Cc2ccc([N+](=O)[O-])o2)C(=O)N(Cc2ccccc2)S(=O)(=O)N1Cc1ccccc1 [Compound 116] | IC50 [1, 5]: < 50 µM; IC50 [1, 4]: 5 ± 1 µM; IC50 ([2]; incubation time 72 h): > 50 µM
12 | > 100 µM | C=CCn1c(-c2ccc(Cl)cc2)csc1=NN=Cc1ccc(Cl)cc1 [Compound 265] | –
13 | 50 to 100 µM | O=C1C(=CC=Cc2ccco2)CCC1=CC=Cc1ccco1 [Compound 1223] | –
14 | > 100 µM | Cc1ncc([N+](=O)[O-])n1CCI [Compound 712] | –
15 | > 100 µM | CN(CC=Cc1ccccc1)CCCCCn1nc(OCc2ccccc2)c2cc([N+](=O)[O-])ccc21 [Compound 507] | –
16 | > 100 µM | [O-][n+]1onc2cc(F)c(F)cc21 [Compound 627] | –
17 | > 100 µM | O=S(=O)(O)c1ccc(C=NN=c2scc(-c3csc(=NN=Cc4ccccc4)n3-c3ccccc3)n2-c2ccccc2)o1 [Compound 784] | –
18 | > 100 µM | C=CCn1c(-c2ccc([N+](=O)[O-])cc2)csc1=NN=C/C=C/c1cccs1 [Compound 907] | –
19 | > 100 µM | C=CCn1c(C(=O)CN2CCN(c3ccccc3)CC2)csc1=NN=CC=Cc1ccco1 [Compound 1099] | –
20 | > 100 µM | O=C1C(=CC=Cc2cccs2)CCC1=CC=Cc1cccs1 [Compound 1018] | –
21 | > 100 µM | C=CCn1c(C(=O)NN2CCN(CC=Cc3ccccc3)CC2)csc1=NN=CC=Cc1ccco1 [Compound 1100] | –
22 | > 100 µM | S=C(NCc1ccccc1)NCc1ccccc1 [Compound 1085] | –

Row | IC50 [1, 3] | Structure (SMILES) | also measured
23 | > 100 µM | C=CCn1c(C(=O)CN2CCN(Cc3ccccc3)CC2)csc1=NN=CC=Cc1ccco1 [Compound 1114] | –
24 | 100 µM | O=C1C(=Cc2ccccc2)CCCC1=Cc1ccccc1 [Compound 799] | –
25 | > 100 µM | NNC(=O)c1ccncc1 [Compound 1120] | –
26 | > 100 µM | C=CCNC(=S)NN=Cc1ccco1 [Compound 69] | –
27 | 50 to 100 µM | CN1C/C(=C\C=C\c2ccccc2)C(=O)/C(=C/C=C/c2ccccc2)C1 [Compound 1284] | –
28 | > 100 µM | CCOC(=O)c1nc2ccc([N+](=O)[O-])cc2n1O [Compound 546] | –
29 | > 100 µM | COC(=O)NN=Cc1ccc2nonc2c1 [Compound 31] | –
30 | > 100 µM | S=C(NN=Cc1ccccc1)Nc1ccccc1 [Compound 278] | –
31 | > 100 µM | C=CCn1c(C(=O)NN2CCOCC2)csc1=NN=CC=Cc1ccco1 [Compound 1124] | –
32 | > 100 µM | Cc1c(C=Cc2ccc([N+](=O)[O-])s2)ncn[n+]1[O-] [Compound 214] | –
33 | > 100 µM | [O-][n+]1onc(-c2ccccc2)c1CNc1cccc2ccccc12 [Compound 169] | –
34 | > 100 µM | CCOC(=O)C=Cc1ccc([N+](=O)[O-])o1 [Compound 66] | –
35 | > 100 µM | CN1CC(=CC=Cc2cccs2)C(=O)C(=CC=Cc2cccs2)C1 [Compound 1285] | –
36 | > 100 µM | CC1(C)[N+]([O-])=c2ccc(C3OCCO3)cc2=[N+]1[O-] [Compound 105] | –
37 | > 100 µM | COc1ccc(C=O)cc1-c1cc(C=O)ccc1OC [Compound 237] | –
38 | 100 µM | N#CSc1ccc(C=O)cc1[N+](=O)[O-] [Compound 670] | –
39 | > 100 µM | [O-][N+]1=c2ccccc2=[N+]([O-])C12CCCC2 [Compound 633] | –
40 | > 100 µM | CC12CCC(O)CC1=CCC1C2CCC2(C)C(C(=O)C=Cc3ccccc3Cl)CCC12 (centres unmarked) [Compound 1259] | –
41 | > 100 µM | CCCCNS(=O)(=O)NCCCC [Compound 123] | –
42 | > 100 µM | Cc1nnc(C)[n+]([O-])c1C=Cc1ccc(N(C)C)cc1 [Compound 213] | –
43 | > 100 µM | CCN(CC)CCCNS(=O)(=O)NCCCN(CC)CC [Compound 125] | –
44 | > 100 µM | N#CC(C#N)=CC=Cc1ccco1 [Compound 579] | –

Row | Structure (SMILES) | IC50 [1, 3] | also measured
45 | C=CCN1C(=O)CSC1=NN=Cc1ccc2c(c1)[n+]([O-])c(-c1ccccc1)c(C(=O)Nc1ccccc1)[n+]2[O-] [Compound 303] | > 100 µM | ADULTS SEVERITY SCORE (S. mansoni adults; 4 h): 0; ADULTS SEVERITY SCORE (S. mansoni adults; 8 h): 0; ADULTS SEVERITY SCORE (S. mansoni adults; 24 h): 0; SOMULES SEVERITY SCORE (S. mansoni somules; 24 h): 0; SOMULES SEVERITY SCORE (S. mansoni somules; 48 h): 4; SOMULES SEVERITY SCORE (S. mansoni somules; 3d): 4
46 | C=CCNC(=S)NN=Cc1ccc2c(c1)[n+]([O-])c(C(=O)Nc1ccccc1)c(C)[n+]2[O-] [Compound 490] | > 100 µM | SOMULES SEVERITY SCORE (S. mansoni somules; 24 h): 0; SOMULES SEVERITY SCORE (S. mansoni somules; 48 h): 0; SOMULES SEVERITY SCORE (S. mansoni somules; 3d): 0
47 | [Se]=C(NCCN1CCOCC1)NN=CC=Cc1ccco1 [Compound 1147] | 50 to 100 µM | –
